Test system: sensitized rat intestine
Assay: In vitro anaphylaxis: ovalbumin (antigen)-induced contractile response of sensitized rat intestine in organ bath
Assay type: cell-based
Settings: control peptide feG 10^−8 M
Method: Data are expressed as the mean +/− standard error. The data were analyzed using Student's t test for paired samples. Significant differences were accepted if p <0.05. Outlier analysis was performed using a modified Z-score that uses the median of absolute deviation A Z-score with an absolute value of greater than 4.0 was labeled as a potential outlier, and the corresponding data value was excluded.
Male Sprague Dawley rats (Charles River Laboratories, Montreal, QC) of initial weights of 150 g were maintained with lights on from 700 to 1900 h and given food and water ad libitum. The rats were sensitized to 1 mg ovalbumin (OA) using 50 ng of pertussis toxin (Sigma-Aldrich, St. Louis, Mo.) as an adjuvant.
Five to eight weeks following sensitization, the terminal duodenum of the rats was excised and 1 cm sections were mounted in 25 ml organ baths, containing bicarbonate Krebs′ buffer, with 1.0 g of tension. The isometric force generated in response to OA and carbachol (CAR; (2-[(aminocaronyl)oxyl-N,N,N-trimethylethanaminium), a cholinergic agonist, (Sigma-Aldrich) was measured using a Grass Force Displacement Transducer FTO3 (Quincy, MA>. Data were recorded with PolyView software (Polybytes, Inc., Cedar Rapids, Iowa). The tissues were allowed to equilibrate for 30 min during which they were washed several times with buffer, and applied tension was adjusted.
Eight tissue segments were mounted in separate tissue baths, with one tissue segment serving to evaluate if the intestinal tissues elicit a contractile response to the antigen. […] In the absence of a contractile response to antigen the tissues were discarded, and another animal taken.
Once peak contractile responses were attained the tissues were washed three times, baseline re-established and peak contractile response to 10^−5M CAR obtained. The mucosa was then scraped from the tissue, and the mass of the muscle determined. Responses were determined as grams of force/mg wet tissue.
Contractile responses to OA and CAR were measured at peak contraction, and calculated as grams of force per gram wet tissue. Results are expressed in three formats: • i) the amplitude of the OA-induced contractile response (grams of force/mg wet tissue), • ii) the ratio of the Bee Bloom response to the OR response (Bee Bloom/OA) (i.e. animal matched control), • iii) the ratio of the OA and CAR-induced contractile responses (ONCAR) (i.e. tissue matched controls).

## D-phenylalanine-D-glutamate-Glycine [control]
  inhibition of antigen-induced contractions (FIGS. 1 and 2): significantly inhibited
  inhibition of antigen-induced contractions, ratio to OA response, animal matched control (FIG. 3): significantly inhibited
  inhibition of the OA:CAR ratio, tissue matched controls (FIG. 4): did not significantly inhibit
Stated as closely matched by Bee Bloom
  inhibition of antigen-induced contractions: ~−40%
